Read-outs that look alike come from different tables or passages of the source.

Series [1] addresses T1, GST-MSI2 (full-length human MSI2) (Homo sapiens, UniProt Q96DH6).
T1 construct: full-length, N-terminal GST-Flag tag kept (pGEX6P3), expressed in E. coli BL21(DE3)
The experiment in a line: microscale thermophoresis. The class given is binding.

In series [2] the target is T1, GST-MSI2 (full-length human MSI2). Put plainly: fluorescence polarization, RNA-binding inhibition. It counts as biochemical.
For series [3] the target is unchanged. The experiment in a line: fluorescence polarization, RNA-binding inhibition. To be noted: Cy3-C9-rGUAGUAGU RNA oligo, 384-well; no inhibition. It counts as biochemical.
The target of series [4] is T2, GST-MSI2 (full-length human MSI2) (Homo sapiens, UniProt Q96DH6, F66A/F97A/R100A).
T2 construct: full-length, N-terminal GST-Flag tag kept (pGEX6P3), expressed in E. coli BL21(DE3)
T2 sequence (Q96DH6 whole entry F66A/F97A/R100A): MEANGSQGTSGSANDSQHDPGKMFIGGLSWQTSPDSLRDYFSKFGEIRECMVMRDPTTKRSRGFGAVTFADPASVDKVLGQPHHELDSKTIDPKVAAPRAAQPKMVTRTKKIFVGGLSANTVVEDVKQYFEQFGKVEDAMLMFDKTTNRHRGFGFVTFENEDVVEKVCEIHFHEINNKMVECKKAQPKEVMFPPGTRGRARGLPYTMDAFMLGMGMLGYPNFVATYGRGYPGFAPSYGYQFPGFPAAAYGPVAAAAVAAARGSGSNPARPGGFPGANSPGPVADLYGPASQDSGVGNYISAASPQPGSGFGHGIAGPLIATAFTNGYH
The experiment in a line: microscale thermophoresis. The note with it: NT647-labelled protein, 50 mM HEPES, 100 mM NaCl, 0.05% Tween-20, pH 7.4, RT; no binding.

In series [5] the target is T3, GST-MSI2 (full-length human MSI2) (Homo sapiens, UniProt Q96DH6, F97A).
T3 construct: full-length, N-terminal GST-Flag tag kept (pGEX6P3), expressed in E. coli BL21(DE3)
T3 sequence (Q96DH6 whole entry F97A): as the sequence (Q96DH6 whole entry F66A/F97A/R100A) above, with A66F, A100R counted along it
Put plainly: microscale thermophoresis. It counts as binding.

Another series addresses T4, GST-SRSF2 (Homo sapiens, UniProt Q01130).
T4 construct: commercial GST-tagged recombinant protein
T4 sequence (Q01130 2-221): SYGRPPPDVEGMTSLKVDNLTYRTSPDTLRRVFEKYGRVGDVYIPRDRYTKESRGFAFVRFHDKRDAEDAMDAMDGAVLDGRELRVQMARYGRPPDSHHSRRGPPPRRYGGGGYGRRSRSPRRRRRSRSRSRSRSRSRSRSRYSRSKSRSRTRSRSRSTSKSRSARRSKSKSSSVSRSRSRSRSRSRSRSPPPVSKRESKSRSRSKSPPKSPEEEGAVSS
The experiment in a line: microscale thermophoresis. It counts as binding.

The target in series [6] is T5, MSI2 RRM1 (Homo sapiens, UniProt Q96DH6).
T5 construct: RNA-recognition motif 1 only (nucleotides 64-270 of NM_138962.2 as printed); GST-RRM1 made in BL21(DE3); for NMR His6-SUMO fusion with tag cleaved
T5 sequence (Q96DH6 22-104): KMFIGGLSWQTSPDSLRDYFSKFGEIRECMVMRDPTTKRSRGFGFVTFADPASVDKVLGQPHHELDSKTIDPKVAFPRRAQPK
The experiment in a line: microscale thermophoresis. The note with it: NT647-labelled protein, pH 7.4, RT. It counts as binding.

Series [7] has as its target T6, GST-MSI2 (full-length human MSI2) (Homo sapiens, UniProt Q96DH6, R100A).
T6 construct: full-length, N-terminal GST-Flag tag kept (pGEX6P3), expressed in E. coli BL21(DE3)
The experiment in a line: microscale thermophoresis. It counts as binding.

Series [8] concerns the target T7, GST-MSI2 (full-length human MSI2) (Homo sapiens, UniProt Q96DH6, K22A).
T7 construct: full-length, N-terminal GST-Flag tag kept (pGEX6P3), expressed in E. coli BL21(DE3)
The experiment in a line: microscale thermophoresis. The class given is binding.

Series [9] has as its target T5, MSI2 RRM1. The experiment in a line: NMR chemical shift perturbation. It counts as binding. To be noted: 15N-labelled RRM1, tag removed, 20 mM MES, 150 mM NaCl, pH 6.0, 5 °C.
The target in a further series is T8, bovine serum ALBUMIN (Bos taurus, UniProt P02769).
T8 construct: gene ALB
T8 sequence (P02769 25-607): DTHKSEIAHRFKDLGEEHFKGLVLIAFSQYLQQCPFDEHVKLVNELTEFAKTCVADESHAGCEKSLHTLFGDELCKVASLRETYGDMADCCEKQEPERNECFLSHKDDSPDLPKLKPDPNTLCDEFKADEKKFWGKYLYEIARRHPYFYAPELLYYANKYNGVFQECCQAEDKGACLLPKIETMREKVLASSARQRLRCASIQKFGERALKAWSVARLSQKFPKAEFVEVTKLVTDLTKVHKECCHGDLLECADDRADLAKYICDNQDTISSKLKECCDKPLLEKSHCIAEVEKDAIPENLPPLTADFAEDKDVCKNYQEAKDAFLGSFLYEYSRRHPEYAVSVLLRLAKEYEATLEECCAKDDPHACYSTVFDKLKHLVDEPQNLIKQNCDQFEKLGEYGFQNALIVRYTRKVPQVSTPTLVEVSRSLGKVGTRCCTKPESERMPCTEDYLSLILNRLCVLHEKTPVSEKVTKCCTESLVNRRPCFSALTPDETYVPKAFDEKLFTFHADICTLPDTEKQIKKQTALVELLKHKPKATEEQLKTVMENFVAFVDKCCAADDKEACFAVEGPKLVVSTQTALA
Put plainly: microscale thermophoresis. It counts as binding.

The target of series [10] is T9, GST-MSI2 (full-length human MSI2) (Homo sapiens, UniProt Q96DH6, F66A).
T9 construct: full-length, N-terminal GST-Flag tag kept (pGEX6P3), expressed in E. coli BL21(DE3)
T9 sequence (Q96DH6 whole entry F66A): as the sequence (Q96DH6 whole entry F66A/F97A/R100A) above, with A97F, A100R counted along it
Put plainly: microscale thermophoresis. It counts as binding.

For series [11], the target named is T1, GST-MSI2 (full-length human MSI2). Put plainly: fluorescence polarization, RNA-binding inhibition.
In the next series the target is T10, GST-SYNCRIP (Homo sapiens, UniProt O60506).
T10 construct: N-terminal GST-Flag tag kept (pGEX6P3), expressed in E. coli BL21(DE3)
T10 sequence (O60506 1-623): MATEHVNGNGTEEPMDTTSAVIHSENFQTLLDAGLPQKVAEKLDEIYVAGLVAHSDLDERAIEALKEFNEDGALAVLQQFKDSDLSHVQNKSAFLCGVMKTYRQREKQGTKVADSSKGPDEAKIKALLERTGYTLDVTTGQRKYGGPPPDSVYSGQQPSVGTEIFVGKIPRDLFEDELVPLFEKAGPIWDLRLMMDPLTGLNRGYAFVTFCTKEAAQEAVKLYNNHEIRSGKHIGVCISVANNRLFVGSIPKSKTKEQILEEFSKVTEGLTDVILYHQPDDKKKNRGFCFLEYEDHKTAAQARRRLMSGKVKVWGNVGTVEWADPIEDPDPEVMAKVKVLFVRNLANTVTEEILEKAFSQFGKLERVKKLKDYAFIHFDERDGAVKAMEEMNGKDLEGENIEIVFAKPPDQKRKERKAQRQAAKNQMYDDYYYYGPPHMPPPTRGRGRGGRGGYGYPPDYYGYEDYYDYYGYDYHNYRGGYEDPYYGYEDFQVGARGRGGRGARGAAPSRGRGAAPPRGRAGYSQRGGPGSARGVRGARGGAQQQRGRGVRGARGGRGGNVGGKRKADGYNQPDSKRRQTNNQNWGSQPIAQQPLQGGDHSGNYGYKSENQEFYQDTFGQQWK
The experiment in a line: microscale thermophoresis. It counts as binding.

The next series concerns the target MSI2 F97A (Homo sapiens, UniProt Q96DH6 1-328, F97A). Put plainly: MST; MST: 50 mM HEPES, 100 mM NaCl, 0.05% Tween-20, pH 7.4, RT; EMSA: 10 mM HEPES, 20 mM KCl (+10 mM KCl), 1 mM MgCl2, 1 mM DTT, 5% glycerol, 100 ug/mL tRNA, 40 nM RNA, RT. To be noted: protein: recombinant; tags: GST, Flag; single strand.
The target in a further series is MSI2 K22A (Homo sapiens, UniProt Q96DH6 1-328, K22A). The description is as above. To be noted: protein: recombinant; tags: GST, Flag; single strand.
Sequence of MSI2 K22A (Q96DH6 whole entry K22A): as the sequence (Q96DH6 whole entry F66A/F97A/R100A) above, with K22A, A66F, A97F, A100R counted along it
The target in the next series is MSI2 F66A (Homo sapiens, UniProt Q96DH6 1-328, F66A). The description is as above. To be noted: protein: recombinant; tags: GST, Flag; single strand.
Sequence of MSI2 F66A (Q96DH6 whole entry F66A): as the sequence (Q96DH6 whole entry F66A/F97A/R100A) above, with A97F, A100R counted along it
Another series addresses MSI2 R100A (Homo sapiens, UniProt Q96DH6 1-328, R100A). The series is described as above. The note with it: protein: recombinant; tags: GST, Flag; single strand.
The target in a further series is MSI2 WT (Homo sapiens, UniProt Q96DH6 1-328). Described as above. The note with it: protein: recombinant; tags: GST, Flag; single strand.
Sequence of MSI2 WT (Q96DH6 whole entry): as the sequence (Q96DH6 whole entry F66A/F97A/R100A) above, with A66F, A97F, A100R counted along it

T1 sequence (Q96DH6 whole entry): as the sequence (Q96DH6 whole entry F66A/F97A/R100A) above, with A66F, A97F, A100R counted along it
T7 sequence (Q96DH6 whole entry K22A): as the sequence (Q96DH6 whole entry F66A/F97A/R100A) above, with K22A, A66F, A97F, A100R counted along it
T6 sequence (Q96DH6 whole entry R100A): as the sequence (Q96DH6 whole entry F66A/F97A/R100A) above, with A66F, A97F counted along it
Sequence of MSI2 R100A (Q96DH6 whole entry R100A): as the sequence (Q96DH6 whole entry F66A/F97A/R100A) above, with A66F, A97F counted along it
Sequence of MSI2 F97A (Q96DH6 whole entry F97A): as the sequence (Q96DH6 whole entry F66A/F97A/R100A) above, with A66F, A100R counted along it

With `Cc1cc2nc3c(=O)[nH]c(=O)nc-3n(C)c2cc1CO` [Ro-OH], in [1], the Kd was 302 ± 119 µM. In series [2], this molecule yielded an IC50 of 25 ± 8 µM.
As to `CC(=O)Nc1ccc2nc3c(=O)n(C)c(=O)n(C)c3nc2c1` [Ro-NGF], in series [1] (NT647-labelled protein, 50 mM HEPES, 100 mM NaCl, 0.05% Tween-20, pH 7.4, RT, no interaction detected up to 500 μM), the Kd was greater than 500 µM. Also, the “fluorescence polarization, RNA-binding inhibition” value in series [3] was “Ro-NGF failing to inhibit RNA-binding activity”.
Consider `Cc1cc2nc3c(=O)[nH]c(=O)nc-3n(C)c2cc1C=O` [Ro, Ro 08–2750], for which the microscale thermophoresis result in [4] is “The triple mutant (F66A/F97A/R100A) was incapable of binding to Ro”. Moreover, the Kd in [5] was 69.5 ± 14.7 µM; in series [1], 12.3 ± 0.5 µM; on GST-SRSF2, 190 ± 62 µM; on MSI2 RRM1 [6], 24.3 ± 4 µM; in series [7], 148 ± 65 µM; in [8], greater than 200 µM. Also, the Kd at bovine serum ALBUMIN is greater than 500 µM; in [10], greater than 200 µM; at GST-SYNCRIP, 236 ± 167 µM. For the same molecule, the “NMR chemical shift perturbation” value at MSI2 RRM1 [9] is listed as “observed three main regions with structural changes by titrating MSI2 with Ro”. In [11], this molecule had an IC50 of 2.7 ± 0.4 µM.

B1: 15-nt MSI RNA oligo (ssRNA)
RNA: GUAGUAGUAGUAGUA
On to B1, for which the Kd in the series with MSI2 F97A is 0.0066 ± 0.001 µM; with MSI2 K22A it was 0.0064 ± 0.0006 µM; with MSI2 F66A, 0.0062 ± 0.0006 µM; with MSI2 R100A it was 0.0065 ± 0.0009 µM; with MSI2 WT, 0.0088 ± 0.0009 µM.
